The target of one test is EZH1 (Homo sapiens, UniProt Q92800). The test can be described thus: AlphaLISA enzyme activity inhibition, EZH1. The note with it: for inhibition at 0.005 µM: 5nM test substance; for inhibition at 0.01 µM: 10nM test substance. Format: biochemical. In short, it runs like this: (§1)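 Enzyme inhibition rate was calculated relative to DMSO from AlphaLISA signal, with acceptor beads added after a 2 h methylation reaction and donor beads 1 h later. Each enzyme, EZH1 or EZH2, was pre-mixed with compound (final 5 nM or 10 nM) in Tris buffer pH 8.0 before histone H3 peptide and SAM initiated the reaction.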
Sequence of EZH1 (Q92800 whole entry, species assumed): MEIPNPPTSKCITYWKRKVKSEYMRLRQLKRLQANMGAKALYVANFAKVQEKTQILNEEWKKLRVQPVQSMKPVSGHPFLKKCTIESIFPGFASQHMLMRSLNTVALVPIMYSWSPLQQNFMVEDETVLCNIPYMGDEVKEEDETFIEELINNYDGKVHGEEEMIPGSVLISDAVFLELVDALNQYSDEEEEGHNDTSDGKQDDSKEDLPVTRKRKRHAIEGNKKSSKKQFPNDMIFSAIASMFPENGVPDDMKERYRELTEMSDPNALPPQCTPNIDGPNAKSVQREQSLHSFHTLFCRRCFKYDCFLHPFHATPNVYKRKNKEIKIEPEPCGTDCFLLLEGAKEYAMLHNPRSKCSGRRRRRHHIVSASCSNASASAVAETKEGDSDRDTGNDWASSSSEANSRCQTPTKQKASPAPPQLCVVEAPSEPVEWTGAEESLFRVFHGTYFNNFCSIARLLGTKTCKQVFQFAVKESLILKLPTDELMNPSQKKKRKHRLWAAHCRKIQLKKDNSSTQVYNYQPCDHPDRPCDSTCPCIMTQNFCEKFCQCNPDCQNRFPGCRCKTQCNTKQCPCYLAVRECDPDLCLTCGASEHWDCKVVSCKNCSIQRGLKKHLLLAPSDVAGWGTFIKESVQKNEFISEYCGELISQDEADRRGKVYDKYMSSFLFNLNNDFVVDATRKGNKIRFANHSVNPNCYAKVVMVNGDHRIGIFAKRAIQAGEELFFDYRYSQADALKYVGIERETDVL
Sequence of EZH1 (O75530 whole entry partner, species assumed): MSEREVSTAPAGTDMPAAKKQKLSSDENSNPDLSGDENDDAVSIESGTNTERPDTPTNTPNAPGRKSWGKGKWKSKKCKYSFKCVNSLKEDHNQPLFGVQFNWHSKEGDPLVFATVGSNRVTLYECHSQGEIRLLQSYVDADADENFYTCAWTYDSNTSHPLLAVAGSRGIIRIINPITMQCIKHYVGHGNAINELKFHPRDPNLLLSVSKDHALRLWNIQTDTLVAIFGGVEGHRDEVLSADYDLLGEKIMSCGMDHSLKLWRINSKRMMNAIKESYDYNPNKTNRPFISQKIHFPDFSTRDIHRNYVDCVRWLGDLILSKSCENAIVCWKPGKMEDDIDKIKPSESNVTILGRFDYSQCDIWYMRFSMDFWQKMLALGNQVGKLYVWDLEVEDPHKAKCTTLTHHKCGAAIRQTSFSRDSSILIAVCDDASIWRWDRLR
Sequence of EZH1 (Q15022 whole entry partner, species assumed): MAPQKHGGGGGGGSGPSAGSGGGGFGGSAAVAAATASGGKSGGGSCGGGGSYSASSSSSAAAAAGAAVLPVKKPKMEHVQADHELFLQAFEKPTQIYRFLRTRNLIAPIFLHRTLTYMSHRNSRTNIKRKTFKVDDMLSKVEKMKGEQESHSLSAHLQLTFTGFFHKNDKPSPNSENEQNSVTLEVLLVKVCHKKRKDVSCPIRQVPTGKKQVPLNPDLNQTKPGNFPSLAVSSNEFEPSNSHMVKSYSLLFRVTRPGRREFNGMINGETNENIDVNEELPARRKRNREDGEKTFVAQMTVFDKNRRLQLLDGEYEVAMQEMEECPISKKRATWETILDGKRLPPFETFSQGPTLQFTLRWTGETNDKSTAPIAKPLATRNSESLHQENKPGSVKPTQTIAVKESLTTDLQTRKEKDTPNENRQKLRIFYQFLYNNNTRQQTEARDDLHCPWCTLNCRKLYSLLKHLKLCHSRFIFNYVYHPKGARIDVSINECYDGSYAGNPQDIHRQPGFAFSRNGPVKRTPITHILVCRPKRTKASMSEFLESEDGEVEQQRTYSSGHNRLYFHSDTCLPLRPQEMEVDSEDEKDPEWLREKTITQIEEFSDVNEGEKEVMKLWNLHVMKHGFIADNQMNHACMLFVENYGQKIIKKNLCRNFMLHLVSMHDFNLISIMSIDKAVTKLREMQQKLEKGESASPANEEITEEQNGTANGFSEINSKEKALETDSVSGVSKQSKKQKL

The next test has as its system MIA-PaCa-2 cells. The test can be described thus: Cancer cell proliferation inhibition (Cell Counting Kit-8), pancreatic cancer cell line. Format: cell-based. The note with it: Homo sapiens, MIA PaCa-2, 264 h, 1000 nM, cultured seven to 11 days; read-out: % inhibition rate MIA-Paca2. An outline of the steps:
(§2)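 Percent inhibition, calculated as {1−(test group/control group)} × 100, comes from Cell Counting Kit-8 measurement. Treatment was 1000 nM test substance for seven to 11 days on cells plated at 100 to 1,000 per well in serum-containing medium.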
(Formazan colour is commonly taken as a measure of viable cells.)

The next test has as its system Lovo cells. Nature of the test: Cancer cell proliferation inhibition (Cell Counting Kit-8), colorectal cancer cell line. The note with it: Homo sapiens, LoVo, 264 h, 1000 nM, cultured seven to 11 days; read-out: % inhibition rate LoVo. Format: cell-based. An outline of the steps: as §2
A further test deals with NCI-H1299 cells. Nature of the test: Cancer cell proliferation inhibition (Cell Counting Kit-8), lung cancer cell line. Conditions: Homo sapiens, NCI-H1299, 264 h, 1000 nM, cultured seven to 11 days; read-out: % inhibition rate NCI-H129 9. Format: cell-based. In short, it runs like this:
as §2

Another test has as its system G401 cells. The test can be described thus: Cancer cell proliferation inhibition (Cell Counting Kit-8), rhabdoid tumor cell line. Format: cell-based. Conditions: 1000 nM, cultured seven to 11 days; for inhibition at 1 µM: Homo sapiens, G-401, 264 h, read-out: % inhibition rate G401. In short, it runs like this: (§3)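 Single 1000 nM dose of test substance, applied to cells seeded at 100–1,000 per well in 10% FBS medium, then culture for seven to 11 days. CCK-8 read-out; inhibition rate expressed as percent relative to untreated control.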

The next test addresses EZH2 (Homo sapiens, UniProt Q15910). The test can be described thus: AlphaLISA enzyme activity inhibition, EZH2. Format: biochemical. The note with it: for inhibition at 0.005 µM: 5nM test substance; for inhibition at 0.01 µM: 10nM test substance. An outline of the steps:
as §1

A further test relates to MKN-45 cells. Nature of the test: Cancer cell proliferation inhibition (Cell Counting Kit-8), gastric cancer cell line. Format: cell-based. The note with it: Homo sapiens, MKN-45, 264 h, 1000 nM, cultured seven to 11 days; read-out: % inhibition rate MKN -45. In short, it runs like this:
as §3

In a further test the test system is SW-13 cells. Nature of the test: Cancer cell proliferation inhibition (Cell Counting Kit-8), adrenal cancer cell line. The note with it: Homo sapiens, SW13, 264 h, 1000 nM, cultured seven to 11 days; read-out: % inhibition rate SW-13. Format: cell-based. In short, it runs like this:
as §2

Where only a bound is given, the exact number is not on record here.

Sequence of EZH2 (Q15910 whole entry, species assumed): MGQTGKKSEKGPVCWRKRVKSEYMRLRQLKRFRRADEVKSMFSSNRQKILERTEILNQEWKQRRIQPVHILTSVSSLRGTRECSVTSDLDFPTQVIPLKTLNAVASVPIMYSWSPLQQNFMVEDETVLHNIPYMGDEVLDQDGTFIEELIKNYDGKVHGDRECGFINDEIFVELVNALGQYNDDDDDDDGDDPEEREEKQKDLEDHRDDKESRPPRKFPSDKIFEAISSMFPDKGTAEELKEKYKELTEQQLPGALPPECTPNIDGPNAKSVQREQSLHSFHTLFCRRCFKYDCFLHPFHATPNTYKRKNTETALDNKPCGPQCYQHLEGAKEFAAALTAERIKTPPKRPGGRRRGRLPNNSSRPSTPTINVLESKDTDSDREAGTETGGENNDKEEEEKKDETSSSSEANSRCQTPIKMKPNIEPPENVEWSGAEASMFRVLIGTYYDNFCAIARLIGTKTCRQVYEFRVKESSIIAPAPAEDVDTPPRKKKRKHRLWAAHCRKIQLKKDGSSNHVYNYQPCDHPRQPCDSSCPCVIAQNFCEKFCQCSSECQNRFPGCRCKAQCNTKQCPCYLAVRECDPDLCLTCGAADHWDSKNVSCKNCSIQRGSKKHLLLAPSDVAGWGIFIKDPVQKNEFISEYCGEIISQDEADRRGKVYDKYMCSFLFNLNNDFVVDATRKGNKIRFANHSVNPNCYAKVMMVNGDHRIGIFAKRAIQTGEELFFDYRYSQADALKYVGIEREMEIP
Sequence of EZH2 (O75530 whole entry partner, species assumed): as the sequence (O75530 whole entry partner, species assumed) above
Sequence of EZH2 (Q15022 whole entry partner, species assumed): as the sequence (Q15022 whole entry partner, species assumed) above

In the case of `COCCN(C)[C@H]1CC[C@H](C2(C)Oc3c(-c4ccc(N5CCC(F)(F)CC5)nc4)cc(C(=O)NCc4c(SC)cc(C)[nH]c4=O)c(C)c3O2)CC1` (relative stereo) [Compound 27, 7-(6-(4,4-difluoropiperidin-1-yl)pyridin-3-yl)-2-(trans-4-((2-methoxyethyl)(methyl)amino)cyclohexyl)-2,4-dimethyl-N-((6-methyl-4-(methylthio)-2-oxo-1,2-dihydropyridin-3-yl)methyl)benzo[d][1,3]dioxole-5-carboxamide], the inhibition at 0.005 µM is 80.2% at EZH1 and 95.8% at EZH2. Further, the inhibition at 1 µM with MIA-PaCa-2 cells was no more than 30%; with Lovo cells, no less than 70%; in the test on NCI-H1299 cells, no more than 30%; in the test on G401 cells it was 30 to 70%; in the test on MKN-45 cells it was 30 to 70%; in the test on SW-13 cells it was 30 to 70%.

For the molecule `CSc1cc(C)[nH]c(=O)c1CNC(=O)c1cc(-c2ccc(N3C[C@@H](C)O[C@@H](C)C3)nc2)c2c(c1C)OC(C)([C@H]1CC[C@H](N(C)C)CC1)O2` (stereo partly drawn) [Compound 1, 2-(trans-4-(dimethylamino)cyclohexyl)-7-(6-((2S,6R)-2,6-dimethylmorpholino)pyridin-3-yl)-2,4-dimethyl-N-((6-methyl-4-(methylthio)-2-oxo-1,2-dihydropyridin-3-yl)methyl)benzo[d][1,3]dioxole-5-carboxamide], the inhibition at 0.005 µM on EZH1 is 89.1%; against EZH2, 98.7%. The inhibition at 1 µM with MIA-PaCa-2 cells was no more than 30%; in the test on Lovo cells, 30 to 70%; in the test on NCI-H1299 cells, no more than 30%; with G401 cells, 30 to 70%; with MKN-45 cells, no more than 30%; in the test on SW-13 cells, 30 to 70%.

In the case of `CSc1cc(C)[nH]c(=O)c1CNC(=O)c1cc(-c2ccc(N3C[C@@H](C)O[C@@H](C)C3)nc2)c2c(c1C)OC(C)([C@H]1CC[C@H](N(C)C(C)C)CC1)O2` (stereo partly drawn) [Compound 110, 7-(6-((2S,6R)-2,6-dimethylmorpholino)pyridin-3-yl)-2-(trans-4-(isopropyl(methyl)amino)cyclohexyl)-2,4-dimethyl-N-((6-methyl-4-(methylthio)-2-oxo-1,2-dihydropyridin-3-yl)methyl)benzo[d][1,3]dioxole-5-carboxamide], the figures for the inhibition at 0.005 µM on EZH1 and on EZH2 were 52% and 99.8%, respectively. For the same molecule, the inhibition at 0.01 µM against EZH1 was found to be 91.9%; at EZH2, 100%. Also, the inhibition at 1 µM in the test with MIA-PaCa-2 cells was no more than 30%; in the test on Lovo cells, no less than 70%; in the test with NCI-H1299 cells, no more than 30%; with G401 cells, no less than 70%; in the test on MKN-45 cells, no more than 30%; in the test on SW-13 cells, 30 to 70%.

With `CCN1CCN(c2ncc(-c3cc(C(=O)NCc4c(SC)cc(C)[nH]c4=O)c(C)c4c3OC(C)(C3CCN(CC(F)(F)F)CC3)O4)cn2)CC1` (stereo not shown) [Compound 75, 7-(2-(4-ethylpiperazin-1-yl)pyrimidin-5-yl)-2,4-dimethyl-N-((6-methyl-4-(methylthio)-2-oxo-1,2-dihydropyridin-3-yl)methyl)-2-(1-(2,2,2-trifluoroethyl)piperidin-4-yl)benzo[d][1,3]dioxole-5-carboxamide], the inhibition at 0.005 µM at EZH1 worked out at 61.3%; against EZH2, 79%. Besides, the inhibition at 0.01 µM on EZH1 stood at 86%; against EZH2 it was 99.7%. Further, the inhibition at 1 µM with MIA-PaCa-2 cells is no more than 30%; in the test on Lovo cells, no less than 70%; in the test with NCI-H1299 cells it was no more than 30%; with G401 cells, no less than 70%; with MKN-45 cells, 30 to 70%; with SW-13 cells it was 30 to 70%.

Regarding `CSc1cc(C)[nH]c(=O)c1CNC(=O)c1cc(-c2ccc(N3C[C@@H](C)O[C@@H](C)C3)nc2)c2c(c1C)OC(C)(C1CCN(CCc3ccccc3)CC1)O2` (single isomer, unassigned) [Compound 55], the inhibition at 0.005 µM against EZH1 came out at 31.6%; on EZH2, 58.2%. Moreover, the values for the inhibition at 0.01 µM at EZH1 and against EZH2 were 52.2% and 93.3%, respectively. The inhibition at 1 µM was no more than 30% in the test with MIA-PaCa-2 cells; no less than 70% in the test with Lovo cells; 30 to 70% with NCI-H1299 cells; 30 to 70% in the test on MKN-45 cells; 30 to 70% in the test with SW-13 cells. For the same molecule, the “% inhibition rate G401” value with G401 cells (1 µM) is recorded as “+++ (+++: ≥70%)”.

Turning to `CSc1cc(C)[nH]c(=O)c1CNC(=O)c1cc(-c2ccc(N3C[C@@H](C)O[C@@H](C)C3)nc2)c2c(c1C)OC(C)([C@H]1CC[C@H](N(C)CCc3ccccc3)CC1)O2` (stereo partly drawn) [Compound 112, 7-(6-((2S,6R)-2,6-dimethylmorpholino)pyridin-3-yl)-2,4-dimethyl-2-(trans-4-(methyl(phenethyl)amino)cyclohexyl)-N-((6-methyl-4-(methylthio)-2-oxo-1,2-dihydropyridin-3-yl)methyl)benzo[d][1,3]dioxole-5-carboxamide], the inhibition at 0.005 µM at EZH1 came to 24.3%; at EZH2, 58.5%. Besides, the results for the inhibition at 0.01 µM against EZH1 and on EZH2 were 40.7% and 97%, respectively. Also, the inhibition at 1 µM in the test with MIA-PaCa-2 cells was no more than 30%; in the test with Lovo cells it was no less than 70%; in the test with NCI-H1299 cells it was no more than 30%; in the test with G401 cells it was no less than 70%; in the test with MKN-45 cells, 30 to 70%; in the test on SW-13 cells, 30 to 70%.

In the case of `COc1ccc(-c2cc(C(=O)NCc3c(SC)cc(C)[nH]c3=O)c(C)c3c2OC(C)(C2CCN(CC(F)(F)F)CC2)O3)cn1` (stereo not shown) [Compound 36, 7-(6-methoxypyridin-3-yl)-2,4-dimethyl-N-((6-methyl-4-(methylthio)-2-oxo-1,2-dihydropyridin-3-yl)methyl)-2-(1-(2,2,2-trifluoroethyl)piperidin-4-yl)benzo[d][1,3]dioxole-5-carboxamide], the inhibition at 0.005 µM is 57.4% on EZH1 and 83.1% on EZH2. Also, the inhibition at 1 µM was no more than 30% in the test on MIA-PaCa-2 cells; no less than 70% in the test on Lovo cells; no more than 30% with NCI-H1299 cells; no less than 70% in the test with G401 cells; no more than 30% in the test on MKN-45 cells; no more than 30% in the test on SW-13 cells.

As to `COC1CN([C@H]2CC[C@H](C3(C)Oc4c(-c5ccc(N6C[C@@H](C)O[C@@H](C)C6)nc5)cc(C(=O)NCc5c(SC)cc(C)[nH]c5=O)c(C)c4O3)CC2)C1` (stereo partly drawn) [Compound 106, 7-(6-((2S,6R)-2,6-dimethylmorpholino)pyridin-3-yl)-2-(trans-4-(3-methoxyazetidin-1-yl)cyclohexyl)-2,4-dimethyl-N-((6-methyl-4-(methylthio)-2-oxo-1,2-dihydropyridin-3-yl)methyl)benzo[d][1,3]dioxole-5-carboxamide], the inhibition at 0.005 µM on EZH1 worked out at 34.2%; against EZH2, 90.6%. The inhibition at 0.01 µM worked out at 69.1% on EZH1 and 99.9% against EZH2. In addition, the inhibition at 1 µM is no more than 30% with MIA-PaCa-2 cells; no less than 70% with Lovo cells; 30 to 70% in the test on NCI-H1299 cells; no less than 70% with G401 cells; no more than 30% with MKN-45 cells; 30 to 70% in the test with SW-13 cells.

As for `CSc1cc(C)[nH]c(=O)c1CNC(=O)c1cc(-c2ccc(N3C[C@@H](C)O[C@@H](C)C3)nc2)c2c(c1C)OC(C)([C@H]1CC[C@H](N(C)CC3OCCO3)CC1)O2` (stereo partly drawn) [Compound 32, 2-(trans-4-(((1,3-dioxolan-2-yl)methyl)(methyl)amino)cyclohexyl)-7-(6-((2S,6R)-2,6-dimethylmorpholino)pyridin-3-yl)-2,4-dimethyl-N-((6-methyl-4-(methylthio)-2-oxo-1,2-dihydropyridin-3-yl)methyl)benzo[d][1,3]dioxole-5-carboxamide], the inhibition at 0.005 µM at EZH1 worked out at 74.1%; against EZH2 it was 82.6%. For the same molecule, the inhibition at 1 µM in the test with MIA-PaCa-2 cells is no more than 30%; in the test with Lovo cells, no less than 70%; with NCI-H1299 cells, 30 to 70%; with G401 cells, 30 to 70%; with MKN-45 cells, 30 to 70%; in the test with SW-13 cells, 30 to 70%.

One may read the inhibition as the drop in the measured response relative to a control, in per cent.

For the origin of these results see EP4740948A1 (Dong Wha Pharm. Co., Ltd., priority 2023, dated 2025).
